pIC50: −log10 of the molar value. Where a name gives a salt, the structure may show the parent alone.

The first assay relates to TG3 immunoreactivity in OKA treated MSN1a cells. In words: MSN1a cell culture model, ELISA with TG3 antibody, okadaic acid treated cells. It is filed as cell-based, human. Particulars: 1 μM OKA, 2 hrs at 37° C., read-out: IC50 for inhibition of TG3 immunoreactivity in OKA treated MSN1a cells. The protocol: This assay can thus be used to determine whether a drug is capable of preventing or intervening in AD by attenuating the production of abnormally phosphorylated paired helical filament epitopes associated with AD. To determine whether a drug is capable of preventing or intervening in AD activity, the MSN1a cells containing tau and associated proteins are treated with OKA capable of greatly increasing immunoreactivity of the MSN1a cells with AD specific monoclonal antibodies. Then, either prior to or concomitantly with OKA treatment, a compound of the present invention is added to the culture. If the compound prevents the induction of the AD epitopes in the MSN1a cells treated with OKA, then it is said to have anti-AD activity. If the AD-specific antibodies are highly reactive with the neuroblastoma cells following OKA treatment in the presence of compound, then the compound is said to be ineffectual against AD.
The MSN1a human neuroblastoma line was subcloned from a population of MSN cells obtained from the laboratory of Dr. Peter Davies (Albert Einstein College of Medicine, New York, N.Y.). Cells were grown and maintained in flasks in RPMI 1640 medium, supplemented with 15% fetal calf serum, 100 U/ml penicillin, 100 U/ml Streptomycin, 0.5 ug/ml fungizone under 7.5% CO2 at 37° C.
Stock solutions of drugs were prepared by dissolving the anhydrous powders to final concentrations of either 10 or 20 mM in 50% aqueous or 100% dimethyl sulfoxide (DMSO), respectively. Working solutions of drugs were prepared by dilution of the stock solutions with Kreb's Ringer in Hepes buffer (KRH) (128 mM NaCl, 5 mM KCl, 2.5 mM CaCl2 1.2 mM MgSO4, 1 mM Na2HPO4, 10 mM dextrose, 20 mM Hepes, pH 7.4). OKA is maintained as a 1 mM stock solution in DMSO prior to dilution to 4 μM in KRH.
MSN cells grown in 225 cm^2 flasks are removed from the incubator, their medium decanted and replaced with 50 ml pre-warmed KRH. The cells are harvested by scraping prior to sedimentation at 1000 rpm for 5 min. The supernatants are discarded and the cell pellets are resuspended, the cells counted and diluted to a density of 2×10^4 cells/[…]. The cells are then plated in a 96 well plate at 50 μl/well and 25 μl of 4 μM OKA and 25 μl of drug are then added to the appropriate wells; the entire 96 well plate is then incubated for 2 hrs at 37° C. Depending on the dilution of drug added, this yields individual wells containing 1 μM OKA, 0-64 μM drug and 2×10^4 cells in 0.26% DMSO in KRH. The incubation is terminated by the addition of 20 μl of 6X extraction buffer and immediate freezing at −80° C. for at least one hr. The 6X extraction buffer contains: 25 mM Tris-HCl, pH 7.6, 150 mM NaCl, 5 mM EDTA, 24 mM β-glycerol phosphate, 10 μg/ml APMSF (4-amidinophenylmethane-sulfonyl flouride), and 2.5 μg/ml each of leupeptin, aprotinin, and pepstatin. The plates are thawed in a 37° C. water bath and 20 μl of cell lysate is added to a replica well in an ELISA plate that already contains 80 μl of coating buffer (15 mM Na2CO3 and 35 mM NaHCO3, pH 9.6). The plates are allowed to coat overnight at 4° C. The plates are washed four times with deionized water and then blocked for 30 min at 37° C. with 200 μl/well pre-warmed 1% bovine serum albumin in 10 mM Tris-HCl, pH 7.4, 150 mM NaCl, 3 mM NaN3 (BSA-TBS). After the blocking solution is removed, 100 μl/well of an appropriate dilution of pre-warmed primary antibody (eg., TG3 or PHF-1) in BSA-TBS is added and incubated at 37° C. for 30 min. Incubation is terninated by washing four times in deionized water at which time 100 μl of an appropriate dilution of pre-warmed secondary antibody (conjugated to alkaline phosphatase) in BSA-TBS is added to each well in the ELISA plate. Incubation is performed for 30 min at 37° C. followed by washing 4 times with deionized water. […] of prewarmed chromogenic substrate (1 mg/mnl p-nitrophenyl phosphate in 10% diethanolamine, 3 mM NaN3, 0.5 mM MgCl2, pH 9.8) is added and the plate incubated for 30 min at 37° C. […]
Background: ELISA stands for enzyme-linked immunosorbent assay.
`O=C(CCN1CCN(Cc2ccccc2)CC1)c1cccc([N+](=O)[O-])c1` [Example 11, 1-(m-Nitrophenyl)-3-(4′-benzyl-1′-piperazinyl)-1-propanone dihydrochloride]: the negative logarithm of the IC50 (pIC50) (in general, the IC50 on a negative log10 scale, so that one unit is a factor of ten) was 5.38.

In the case of `O=C(CCN1CCN(Cc2ccccc2)CC1)c1ccccc1F` [Example 13, 1-(o-Fluorophenyl)-3-(4′-benzyl-1′-piperazinyl)-1-propanone dihydrochloride], the negative logarithm of the IC50 (pIC50) is 4.96. Still for that read-out and setting: the result for `O=C(CCN1CCN(Cc2ccc(F)c(F)c2)CC1)c1ccc([N+](=O)[O-])cc1` [Example 55, 1-(p-Nitrophenyl)-3-[4′-(3″,4″-difluorobenzyl)-1′-piperazinyl]-1-propanone dihydrochloride] reads 5.20; that for `CS(=O)(=O)Nc1ccc(C(=O)CCN2CCN(Cc3cc(F)ccc3F)CC2)cc1` [Example 36, 1-p-Methanesulfonamidophenyl)-3-(2″,5″-difluorobenzyl-1′-piperazinyl)-1-propanone dihydrochloride], 4.60; that for `O=C(CCN1CCN(Cc2ccccc2)CC1)c1ccc(Br)s1` [Example 57, 1-(5″-Bromo-2″-thieny)-3-(4′-benzy-1′-piperazinyl)-1-propanone dihydrochloride], 5.17. The same measure, in the same setting: in the case of `O=C(CCN1CCN(C(=O)c2ccccc2C(F)(F)F)CC1)c1ccc([N+](=O)[O-])cc1` [Example 39] it was 5.00; in that of `O=C(CCN1CCN(Cc2ccccc2)CC1)c1ccccc1I` [Example 81, 1-o-Iodophenyl-3-(4′-benzyl-1′-piperazinyl)-1-propanone dihydrochloride], 5.35; in that of `O=C(CCN1CCN(Cc2ccccc2F)CC1)c1ccc(I)cc1` [Example 29, 1-(p-Iodophenyl)-3-[4′-(o-fluorobenzyl)-1′-piperazinyl]-1-propanone dihydrochloride], 5.06. For `O=C(CCN1CCN(Cc2ccccc2)CC1)c1ccc(Br)cc1` [Example 16, 1-(p-Bromophenyl)-3-(4′-benzyl-1′-piperazinyl)-1-propanone dihydrochloride], the pIC50 is 5.28. Still for that read-out and setting: the result for `O=C(CCN1CCN(Cc2ccc(F)cc2)CC1)c1ccccc1F` [Example 44, 1-(o-Fluorophenyl)-3-[4′-(p-fluorobenzyl)-1′-piperazinyl]-1-propanone dihydrochloride] reads 5.12; that for `O=C(CCN1CCN(Cc2cccc(F)c2)CC1)c1ccc([N+](=O)[O-])cc1` [Example 42, 1-(p-Nitrophenyl)-3-[4′-(m-fluorobenzyl)-1′-piperazinyl]-1-propanonedihydrochloride], 5.24.

Consider `Cl.Cl.O=C(CCN1CCN(Cc2ccccc2)CC1)c1ccc([N+](=O)[O-])cc1` [Example 5, 1-p-Nitrophenyl)-3-(4′-benzyl-1′-piperaziny)-1-propanone dihydrochloride], for which the pIC50 was 5.30. Same read-out and setting: in the case of “1-(-Methylthiophenyl)-3-(4′-benzyl-1′-piperazinyl)-1-propanonedihydrochloride [Example 14]” it was 5.24.

Still in this assay, the particulars now being: Homo sapiens, 1 μM OKA, 2 hrs at 37° C., read-out: IC50 for inhibition of TG3 immunoreactivity in OKA treated MSN1a cells.
Regarding `Cc1ccc(C(=O)CCN2CCN(Cc3ccccc3)CC2)o1` [Example 67, 1-(5″-Methyl-2″-furanyl)-3-(4′-benzyl-1′-piperazinyl)-1-propanone hydrochloride], the pIC50 is 4.70. Turning to `O=C(CCN1CCN(Cc2ccccc2)CC1)c1cccn1S(=O)(=O)c1ccccc1` [Example 91, 1-(N-Phenylsulfonylpyrrol-2-yl)-3-(4′-benzyl-1′-piperazinyl)-1-propanone dihydrochloride], the pIC50 was 5.02.

For `O=C(CCN1CCN(Cc2ccccc2)CC1)c1ccc(Sc2ccccc2)cc1` [Example 69, 1-p-Phenylthiophenyl-3-(4′-benzyl-1′-piperazinyl)-3-propanone dihydrochlonde], the pIC50 was 4.82. Turning to `O=C(CCN1CCC(C(=O)c2ccc(F)cc2)CC1)c1csc([N+](=O)[O-])c1` [Example 98, 1-(2″-Nitro-4″-thienyl)-3-(4′-p-fluorobenzoyl-1′-piperidinyl)-1-propanone hydrochloride], the pIC50 is 4.47.
